These results are taken from patent publication US6677298B2, “Regulators of PPARδ (β) and their use in the treatment of obesity and insulin resistance” (Bristol-Myers Squibb Company, priority 2000, dated 2004).

For assay [1], the target named is T1, PPARδ(β) LBD (Homo sapiens, UniProt Q03181).
T1 construct: His-tagged PPARδ(β) LBD (amino acid 139-441, Schmidt et al); made in house; host or cells: E. coli (crude lysate supernatant used)
T1 sequence (Q03181 139-441): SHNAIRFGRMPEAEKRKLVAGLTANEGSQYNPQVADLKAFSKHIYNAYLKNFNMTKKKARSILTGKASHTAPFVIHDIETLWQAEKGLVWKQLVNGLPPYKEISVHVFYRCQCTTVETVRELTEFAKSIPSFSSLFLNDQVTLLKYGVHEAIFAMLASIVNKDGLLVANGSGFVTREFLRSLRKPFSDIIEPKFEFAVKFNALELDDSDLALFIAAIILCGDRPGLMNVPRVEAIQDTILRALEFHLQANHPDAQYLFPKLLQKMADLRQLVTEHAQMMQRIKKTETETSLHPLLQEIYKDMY
Put plainly: In vitro PPARδ(β) LBD ligand binding assay (SPA, 3H-labeled ligand displacement). The conditions noted are these: 50 nM 3H-labeled ligand, His-tagged LBD bacterial lysate, SPA beads, 1 hour room temperature; read-out: IC50, half maximal inhibition/displacement of 3H labeled PPARδ(β) ligand binding to PPARδ(β) LBD. The source says: FIG. 3: Illustrates results from a PPARδ(β) ligand binding assay.
This invention also provides methods for screening and identification of compounds that bind to and/or regulate PPARδ(β). The PPARδ(β) ligand binding domain (LBD) from a mammalian species including human and/or a non-mammalian species such as frog (Xenopus), is used for screening for compounds that bind to the LBD (Schmidt et al, Mol. Endocrinology, 6:1634-1641, 1992; Evans et al., Sequence XR-4 in U.S. Pat. No. 5,571,696, 1996; Berger et al. J. Biol. Chem., 274:6718-6725, 1999). […]
A single E.coli colony containing His-tagged PPARδ(β) LBD (amino acid 139-441, Schmidt et al., Mol. Endocrinology, 6:1634-1641, 1992) expressing plasmid DNA is mixed with 3 ml Luria broth (LB) supplemented with 100 μg/ml antibiotic ampicilin and grown at 37° C. […] The plates are then read on Packard top-count beta-scintillation counter (1 minute/well). […] In this binding assay any test compound may replace L-165041 and the binding affinity for PPARδ(β) is easily determined.

In assay [2] the target is T2, Gal4/PPARδ(β) (Homo sapiens, UniProt Q03181).
T2 construct: human PPARδ(β) LBD (amino acid 139-441); {Schmidt et al; expressed in transfected cells; host or cells: CHO cells, stably transfected
The experiment in a line: Cell based transactivation assay, δ agonist mode (Gal4 RE driven SEAP reporter in CHO cells). Conditions: CHO cells stably transfected with Gal4/PPARδ(β); 3.16-31600 nM; FIG. 4.

SMILES strings stand for the structures. “Also recorded” adds a separate entry of the source.

T2 sequence (P04386 1-144 partner limits assumed, one chain of several): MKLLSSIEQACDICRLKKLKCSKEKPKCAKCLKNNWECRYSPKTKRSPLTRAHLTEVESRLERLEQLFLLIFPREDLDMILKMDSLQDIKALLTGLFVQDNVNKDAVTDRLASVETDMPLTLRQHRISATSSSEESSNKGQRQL

As to `CCCc1c(OCCCOc2ccc(OCC(=O)O)cc2)ccc(C(C)=O)c1O` [Compound L-165041], the IC50 in assay [1] is 52 nM. In addition, the “Induction of SEAP reporter gene activity” value in assay [2] is “dose dependent activation of reporter gene SEAP function; also recorded: dose dependently induced reporter gene activity”.
